PubChem BioAssay (NCI)
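Dose response: 5 concentrations. Exposure: 48 h. Format: 96-well plates. Endpoint: linear interpolation; highest concentration if not reached. GI50: concentration for 50% inhibition of growth. TGI is the concentration that stops growth completely.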

Key:
Test in all cases: NCI tumour cell line growth inhibition, 48 h
RXF 393 renal = test system: RXF 393 renal
786-0 renal = test system: 786-0 renal
HL-60(TB) leukemia = test system: HL-60(TB) leukemia
NCI-H522 lung = test system: NCI-H522 lung
SNB-75 CNS = test system: SNB-75 CNS
K-562 leukemia = test system: K-562 leukemia
UO-31 renal = test system: UO-31 renal
SN12C renal = test system: SN12C renal
MOLT-4 leukemia = test system: MOLT-4 leukemia
PC-3 prostate = test system: PC-3 prostate

| Structure (SMILES) | TGI (RXF 393 renal) | TGI (786-0 renal) | TGI (HL-60(TB) leukemia) | TGI (NCI-H522 lung) | TGI (SNB-75 CNS) | TGI (K-562 leukemia) | TGI (UO-31 renal) | TGI (SN12C renal) | TGI (MOLT-4 leukemia) | TGI (PC-3 prostate) | GI50 (NCI-H522 lung) |
| --- | --- | --- | --- | --- | --- | --- | --- | --- | --- | --- | --- |
| CC(C)NC1CCCCC2c3ccccc3C12O (stereo not drawn) | > 100 µM | > 100 µM | > 100 µM | > 100 µM | > 100 µM | > 100 µM | > 100 µM | > 100 µM | > 100 µM | – | – |
| CCOc1ccc2c(c1)[n+]([O-])c(-c1ccccc1)c(N)[n+]2[O-] | – | > 100 µM | > 100 µM | 32.2 µM | > 100 µM | > 100 µM | > 100 µM | > 100 µM | > 100 µM | – | – |
| O=C(c1ccccc1)[C@H]1Nc2ccc(Cl)cc2[C@H]2c3ccccc3O[C@H]21 | 22.4 µM | 30.6 µM | – | 33.8 µM | 25.6 µM | 36.7 µM | 18.2 µM | 29.1 µM | 37.7 µM | – | – |
| CCN(CC)C(=O)c1cccc2c(OC)ccc(OC)c12 | > 100 µM | > 100 µM | > 100 µM | > 100 µM | > 100 µM | > 100 µM | > 100 µM | > 100 µM | > 100 µM | – | – |
| Cc1cc(C)c2c(c1)CSCc1cc(C)cc(C)c1-2 | 65.3 µM | > 100 µM | 43.3 µM | 48 µM | > 100 µM | > 100 µM | > 100 µM | > 100 µM | 41.4 µM | – | – |
| CN(N=O)C(=O)NC(CCCCNC(=O)OCc1ccccc1)C(=O)OCc1ccccc1 (stereo not drawn) | 61.8 µM | 33.6 µM | 48.7 µM | 29.1 µM | 36 µM | > 100 µM | 38.3 µM | 31.9 µM | 64.9 µM | – | – |
| Cc1cccc(-c2nc(=S)[nH][nH]2)c1 | – | > 100 µM | > 100 µM | > 100 µM | > 100 µM | > 100 µM | > 100 µM | > 100 µM | > 100 µM | – | – |
| CCN(CC)P(=O)(c1ccc2c(c1)OCCOCCOCCOCCO2)N(CC)CC | – | > 100 µM | > 100 µM | > 100 µM | > 100 µM | > 100 µM | > 100 µM | > 100 µM | > 100 µM | > 100 µM | – |
| COc1ccc(/C=C2\C(=O)N(C(=O)c3ccc(NC(C)=O)cc3)N=C2C)cc1OC | – | > 100 µM | > 100 µM | > 100 µM | > 100 µM | > 100 µM | > 100 µM | > 100 µM | > 100 µM | – | – |
| O=S(=O)(c1ccccc1)N1CCC1c1ccccc1 (stereo not drawn) | > 100 µM | > 100 µM | 85.1 µM | > 100 µM | > 100 µM | > 100 µM | > 100 µM | > 100 µM | > 100 µM | – | – |
| Cc1cnoc1/N=C1\C=C(Nc2oncc2C)C(=O)c2ccccc21 | > 100 µM | > 100 µM | > 100 µM | – | > 100 µM | > 100 µM | > 100 µM | > 100 µM | > 100 µM | – | – |
| [N-]=[N+]=NC1C(Cl)C(=O)NC(=O)N1[C@H]1C[C@H](O)[C@@H](CO)O1 (stereo partly drawn) | > 100 µM | > 100 µM | > 100 µM | 36.2 µM | > 100 µM | > 100 µM | > 100 µM | > 100 µM | > 100 µM | – | 5.31 µM |
| CC(C)CC(NC(=O)C(O)C(N)Cc1ccccc1)C(=O)O (stereo not drawn) | > 100 µM | > 100 µM | > 100 µM | – | > 100 µM | > 100 µM | > 100 µM | > 100 µM | > 100 µM | > 100 µM | – |
